{"source": "paper PMC9963121", "about": "“Development of Combretastatin A-4 Analogues as Potential Anticancer Agents with Improved Aqueous Solubility” (Molecules, 2023)", "key": {"[1]": {"test_system": "HCT-116 colorectal cancer cell", "test": "MTT cell growth inhibition assay, HCT-116 colorectal cancer cells", "assay_type": "cell-based, human", "settings": "for IC50: Homo sapiens, HCT-116, MTT, mean ± SD of three experiments", "text": "(§1) Initially, we designed and synthesised seven compounds—9a and 12a1–12a6—and evaluated the anticancer activity and aqueous solubility. We evaluated the cytotoxic effects of these stilbene nitrile analogues against a panel of four human cancer cell lines (HCT-116, BEL-7402, MCF-7 and AGS) and two human non-cancerous normal cell lines (L-02 and MCF-10A), using CA-4 as a control. The compounds were screened for aqueous solubility in 0.01 M PBS using a high throughput UV method. […] It is possible that the size of the nitrogen heterocycle had little effect on the activity of these compounds. […] The aqueous solubility of all the compounds 12a1–12a6 was higher than that of 9a, particularly that of 12a1 and 12a2 containing piperazine rings. […] Of the six compounds with improved aqueous solubility, 12a1 had the best activity.\n(§2) All human cell lines were used in this study. AGS gastric cancer cell, BEL-7402 liver cancer cell, HCT-116 colorectal cancer cell, L-02 normal liver cell, MCF-7 breast cancer cell, and MCF-10A normal breast cell were initially purchased from American Type Culture Collection (ATCC, Manassas, VA, USA). RPMI-1640 media, DMEM and FBS, were provided by Gibco Company. The cells were maintained in DMEM or RPMI-1640, supplemented with 10% FBS, 100 IU/mL penicillin and […] streptomycin, and at 37 °C in a humidified atmosphere containing 5% CO2.\n(§3) The experiment was carried out according to the method of reference."}, "[2]": {"test_system": "L-02 normal liver cell", "test": "MTT cell growth inhibition assay, L-02 normal liver cells", "assay_type": "cell-based", "settings": "Homo sapiens, mean ± SD of three experiments", "text": "as §1, §2, §3"}, "[3]": {"test_system": "BEL-7402 liver cancer cell", "test": "MTT cell growth inhibition assay, BEL-7402 liver cancer cells", "assay_type": "cell-based", "settings": "Homo sapiens, mean ± SD of three experiments, read-out: IC50 BEL-7402 Hepatoma Cells", "text": "as §1, §2, §3"}, "[4]": {"test_system": "MCF-10A normal breast cell", "test": "MTT cell growth inhibition assay, MCF-10A normal breast cells", "assay_type": "cell-based", "settings": "Homo sapiens, mean ± SD of three experiments, read-out: IC50 MCF-10A Normal Breast Epithelial Cells", "text": "as §1, §2, §3"}, "[5]": {"test": "Compound stability in rat plasma, HPLC", "assay_type": "in vitro ADME", "settings": "37 °C", "protocol": "Blood was collected from SD rats (200–250 g, male and female, Animal Experimental Center of Yanbian University) into heparin tubes, and supernatant plasma was collected after centrifugation.\nA certain amount of 9a and 12a1 were accurately weighed and mixed with rat plasma. After incubation at 37 ℃ for 0, 6, 12, 24 and 36 h, the plasma samples were treated with methanol and analyzed by HPLC to determine their stability in plasma.\nA HITACHI Primaide HPLC liquid chromatography system was equipped and used for all analyses. Chromatographic separation was performed on a Welch Ultimate XB-C18 column (3.9 mm × 150 mm, 5 μm; Welch, China). The analytes were eluted using a gradient method with a flow rate of 1 mL/min. Mobile phase A was Ultra pure water, and mobile phase B was methanol according to the following gradient: (1) The gradient elution conditions of 9a: 0 to 8 min, 55% to 67% B; 8.1 to 15 min, 67% to 90% B; 15.1 to 25 min, 55% B. (2) The gradient elution conditions of 12a1: 0 to 9 min, 55% to 65% B; 9.1 to 12 min, 65% to 75% B; 12.1 to 15 min, 75% to 85% B; 15.1 to 20 min, 90% B; 20.1 to 30 min, 55% B. The injection volume was 3 μL. The column temperature was set at 40 °C. […]\n1.6. Plasma stability assessment\nPrepare plasma:blood was collected from SD rats (200-250g, male and female, Animal Experimental Center of Yanbian University) into heparin tubes, and supernatant plasma was collected after centrifugation.\nA certain amount of 9a and 12a1 were accurately weighed and mixed with rat plasma.\nAfter incubation at 37℃ for 0 h, 6 h, 12 h, 24 h and 36 h, the plasma samples were treated with methanol and analyzed by HPLC to determine their stability in plasma.\nAnalytical instrument and conditions:\nA HITACHI Primaide HPLC liquid chromatography system equipped was used for all analyses. Chromatographic separation was performed on a Welch Ultimate XB-C18 column (3.9 mm × 150 mm, 5 μm; Welch, China). The analytes were eluted using a gradient method with a flow rate of 1 mL/min. Mobile phase A was Ultra pure water, and mobile phase B was methanol according to the following gradient: (1). The gradient elution conditions of 9a: 0 to 8 minutes, 55% to 67% B; 8.1 to 15 minutes, 67% to 90% B; 15.1 to 25 minutes, 55% B. (2). The gradient elution conditions of […]"}, "[6]": {"test_system": "AGS gastric cancer cell", "test": "MTT cell growth inhibition assay, AGS gastric cancer cells", "assay_type": "cell-based", "settings": "Homo sapiens, mean ± SD of three experiments", "text": "as §1, §2, §3"}, "[7]": {"test": "Aqueous solubility in 0.01 M PBS, high throughput UV method", "assay_type": "physicochemical", "settings": "for Water solubility (in words): Figure 1; for solubility thermodynamic at 1.5 h: aqueous phosphate buffer, aqueous buffer, sodium phosphate buffer 0.01 M, pH 7.4, 22 ± 2 °C, mean ± SD", "text": "as §1\nThe aqueous solubility was determined as a previously reported procedure. Put simply, a certain amount of powdered compound was placed in a 2 mL centrifuge tube and mixed with an appropriate volume of aqueous phosphate buffer (10 mM, pH 7.4) to make the whole system supersaturated. The mixtures were sonicated (KQ5200DE numerical control ultrasonic cleaner, Kunshan Ultrasonic Instrument Co., Ltd., SuZhou, China) for 20 min. After sonication, the mixture was allowed to equilibrate at RT (22 ± 2 °C) for 1.5 h with vortex shaking (1200 rpm). Then centrifuged at 3000 rpm for 15 min (1-14k, sigma, Darmstadt, Germany), the supernatant was filtered with a 0.22 µM filter membrane. And then, take 150 µL of filtrate and add it to 96-well UV plate with triplicate. Draw 150 μL of blank solution was added into plate as blank control. The 96-well UV plate prepared above was read on a Synergy HTX Multifunctional Microplate Reader (BioTek, Vermont, USA) at 294 nm. The absorbance of the sample was corrected according to the UV response of the sample and blank solution, and the corrected UV response values were used for solubility calculations by bringing into the standard curve of the compound. […]\n1.5. Solubility Assessment\nThe aqueous solubility was determined as previously reported using the high throughput solubility screens procedure published by Bruno Bard et al [9. 10]. Put simply, a certain amount of powdered compound was placed in a 2 ml centrifuge tube and mixed with an appropriate volume of aqueous phosphate buffer (0.01 M, pH 7.4) to make the whole system supersaturated. The mixtures were sonicated (KQ5200DE numerical control ultrasonic cleaner, Kunshan Ultrasonic Instrument Co., Ltd., China) for 20 min. After sonication, the mixture was allowed to equilibrate at room temperature (22 ± 2°C) for 1.5 h with vortex shaking (1200 rpm). Then the centrifuge tube was put into the centrifuge (1-14k, sigma, Germany), centrifuged with 3000 rpm for 15 minutes, 0.22 µM filter membrane filtration supernatant, then take 150 µl filtrate and add it to 96-well UV plate, with three well for each compound. Draw 150 μL blank solution were added into 96 well-plate as blank control. The 96-well UV […]\nplate prepared above was read on a SynergyHTX Multifunctional microplate reader (BioTek, USA) at 338 nm (compounds 12a-12d and 15-20) or 370 nm (compounds 9a-d). The absorbance of the sample was corrected according to the UV response of the sample and blank solution, and the corrected UV responses value were used for solubility calculations by bring into the standard curve of the compound. […]"}, "[8]": {"test_system": "MCF-7 breast cancer cell", "test": "MTT cell growth inhibition assay, MCF-7 breast cancer cells", "assay_type": "cell-based", "settings": "Homo sapiens, MCF7, mean ± SD of three experiments", "text": "as §1, §2, §3"}, "[9]": {"parameters": "method as in earlier work", "settings": "cited from earlier work"}, "[10]": {"parameters": "method as in PMID 12067983, PMID 12807934, PMID 14645433", "settings": "clinical data, intravenous CA-4P; cited from earlier work"}, "[11]": {"test": "Configuration (cis/trans) stability", "settings": "Figure 1; cis/trans olefin configuration", "text": "This vascular disrupting activity causes the tumor tissue vascular collapse, cutting down the oxygen and nutrient supply to tumor cells, leading to tumor cell death.\n(compound 2, Figure 1). Still, the methyl group is difficult to modify chemically. […] Lipinski proposed the theory of the “Rule of 5” in 1997 [19], which is used to evaluate the pharmacokinetic characteristics of small molecule drugs."}}}
{"compound": "COc1cc(/C(C#N)=C/c2ccc(N)cc2)cc(OC)c1OC", "note": "[9a, (Z)-3-(4-aminophenyl)-2-(3,4,5-trimethoxyphenyl)acrylonitrile]", "values": [{"measurement": "IC50", "setting": "[1]", "value": "0.02 ± 0.01", "unit": "µM"}, {"measurement": "Selectivity for HCT-116 cancer cells over L-02 normal cells", "setting": "[1]; ratio of IC50 values L-02 / HCT-116", "value": 1000, "unit": "times"}, {"measurement": "Activity against HCT-116 relative to CA-4", "setting": "[1]; ratio to CA-4", "value": "eight times higher"}, {"measurement": "IC50", "setting": "[2]", "value": "20.7 ± 3.39", "unit": "µM"}, {"measurement": "IC50", "setting": "[3]", "value": "0.14 ± 0.01", "unit": "µM"}, {"measurement": "IC50", "setting": "[4]", "value": "> 100", "unit": "µM"}, {"measurement": "Decrease of HPLC peak area in rat plasma", "setting": "[5]; within 36 h, UV 294 nm", "value": "approximately 33%"}, {"measurement": "Plasma stability (in words)", "setting": "[5]; rat plasma, 24 h", "value": "retained plasma stability over 24 h"}, {"measurement": "IC50", "setting": "[6]", "value": "0.12 ± 0.01", "unit": "µM"}, {"measurement": "Water solubility (in words)", "setting": "[7]", "value": "Poor water solubility"}, {"measurement": "solubility thermodynamic at 1.5 h", "setting": "[7]", "value": "0.0108 ± 0.0007", "unit": "mg/mL"}, {"measurement": "Aqueous solubility relative to CA-4", "setting": "[7]; ratio to CA-4", "value": "five times lower"}, {"measurement": "Improvement in aqueous solubility over compound 2", "setting": "[7]; ratio to compound 2", "value": "two-fold"}, {"measurement": "IC50", "setting": "[8]", "value": "4.82 ± 1.57", "unit": "µM"}]}
{"compound": "COc1ccc(/C=C\\c2cc(OC)c(OC)c(OC)c2)cc1O", "note": "[CA-4, Combretastatin A-4]", "values": [{"measurement": "IC50", "setting": "[1]", "value": 0.16, "unit": "µM"}, {"measurement": "IC50", "setting": "[2]", "value": "1.1 ± 0.03", "unit": "µM"}, {"measurement": "IC50", "setting": "[6]", "value": "3.42 ± 0.03", "unit": "µM"}, {"measurement": "Rat Plasma Protein Binding Rate", "setting": "[9]", "value": "72.3 ± 6.9", "unit": "%"}, {"measurement": "Water solubility (in words)", "setting": "[7]", "value": "Poor water solubility"}, {"measurement": "solubility thermodynamic at 1.5 h", "setting": "[7]", "value": 0.0577, "unit": "mg/mL"}, {"measurement": "IC50", "setting": "[8]", "value": "0.22 ± 0.09", "unit": "µM"}]}
{"compound": "COc1ccc(/C=C\\c2cc(OC)c(OC)c(OC)c2)cc1OP(=O)([O-])[O-].[Na+].[Na+]", "note": "[CA-4P, reference compound]", "values": [{"measurement": "IC50", "setting": "[1]", "value": "0.59 ± 0.22", "unit": "µM"}, {"measurement": "half-life", "setting": "[10]", "value": "about 30 min"}, {"measurement": "Configuration stability (in words)", "setting": "[11]", "value": "Configuration instability"}, {"measurement": "Water solubility (in words)", "setting": "[7]", "value": "Good water solubility"}]}
